Data from PMC2654417 (Combinatorial chemistry & high throughput screening, 2008).
Read-outs that look alike come from different tables or passages of the source.

Target: T1, glucocorticoid receptor (GR) (Homo sapiens, UniProt P04150)
T1 sequence (P04150 1-777): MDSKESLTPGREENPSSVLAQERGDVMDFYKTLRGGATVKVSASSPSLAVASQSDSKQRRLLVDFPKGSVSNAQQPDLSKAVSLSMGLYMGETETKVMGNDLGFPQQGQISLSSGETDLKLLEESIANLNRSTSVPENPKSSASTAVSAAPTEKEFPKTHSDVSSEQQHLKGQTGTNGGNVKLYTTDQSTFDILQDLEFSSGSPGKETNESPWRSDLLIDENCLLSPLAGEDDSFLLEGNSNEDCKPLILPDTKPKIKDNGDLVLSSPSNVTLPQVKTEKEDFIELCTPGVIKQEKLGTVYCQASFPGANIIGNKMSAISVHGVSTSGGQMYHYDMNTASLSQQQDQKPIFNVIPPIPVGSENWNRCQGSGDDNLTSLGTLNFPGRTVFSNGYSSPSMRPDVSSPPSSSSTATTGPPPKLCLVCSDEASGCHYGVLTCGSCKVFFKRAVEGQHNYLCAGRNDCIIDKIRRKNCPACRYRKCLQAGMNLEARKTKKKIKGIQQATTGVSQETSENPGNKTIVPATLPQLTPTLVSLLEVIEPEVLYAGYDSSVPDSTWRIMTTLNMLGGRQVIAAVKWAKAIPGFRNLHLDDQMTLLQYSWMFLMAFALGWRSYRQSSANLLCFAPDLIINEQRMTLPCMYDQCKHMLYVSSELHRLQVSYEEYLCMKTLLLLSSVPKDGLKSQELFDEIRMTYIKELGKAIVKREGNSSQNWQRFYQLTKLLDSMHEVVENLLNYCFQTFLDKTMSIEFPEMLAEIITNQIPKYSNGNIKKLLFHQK
Test: GR-EFC nuclear translocation assay
Assay type: cell-based
Details: for qHTS Hill Slope: Hill slope of the qHTS curve fit; for log qEC50: log10 of qEC50 in M, printed as negative values; for qHTS Max Activity: maximal activity of the qHTS curve, inactive threshold […] (3σ); for EC50: read-out: qEC50

[1] = class 4 values are fit defaults
[2] = qHTS curve fit, class 4 values are fit defaults

CC(=O)OCC(=O)[C@@]1(OC(C)=O)[C@H](C)C[C@H]2[C@@H]3C[C@H](F)C4=CC(=O)C=C[C@@]4(C)[C@]3(F)[C@H](O)C[C@@]21C [NCGC00016822-01]
qHTS Hill Slope: 0.44
log qEC50 [1]: −7.111
qHTS Max Activity: 80.7
EC50 [2]: 0.0775 µM

CC(=O)[C@@H]1CC[C@@H]2[C@@H]3CC=C4C[C@H](OS(=O)(=O)O)CC[C@@]4(C)[C@H]3CC[C@]21C [NCGC00016184-01]
EC50 [2]: > 9 µM

CC[C@@H]1Cc2cc(O)ccc2C2=C1c1ccc(O)cc1C[C@H]2CC [NCGC00015377-01]
qHTS Curve Class: 4 (inactive, where activity was below 28.6% (3σ for the present assay))
EC50: > 9 µM

CC1(C)O[C@@H]2C[C@H]3[C@@H]4C[C@H](F)C5=CC(=O)CC[C@]5(C)[C@H]4[C@@H](O)C[C@]3(C)[C@]2(C(=O)CO)O1 [NCGC00016586-01]
qHTS Hill Slope: 0.69
log qEC50 [1]: −7.725
qHTS Max Activity: 104.7
EC50 [2]: 0.0188 µM

C#C[C@]1(O)CC[C@@H]2[C@H]3CCc4cc(OC)ccc4[C@@H]3CC[C@@]21C [NCGC00016310-01]
EC50 [2]: > 9 µM

C[C@@H]1O[C@@H](O[C@@H]2C=C3CC[C@@H]4[C@H](CC[C@]5(C)[C@@H](c6ccc(=O)oc6)CC[C@]45O)[C@@]3(C)CC2)[C@H](O)[C@H](O)[C@H]1O [NCGC00016447-01]
qHTS Curve Class: 4 (inactive, where activity was below 28.6% (3σ for the present assay))
EC50: > 9 µM

CC1(C)CC[C@]2(C(=O)O)CC[C@]3(C)C(=CC[C@@H]4[C@@]5(C)CC[C@H](O)C(C)(C)[C@@H]5CC[C@@]43C)[C@@H]2C1 [NCGC00017222-01]
qHTS Curve Class: 4 (inactive, where activity was below 28.6% (3σ for the present assay))
EC50: > 9 µM

C[C@@H]1[C@H](C)CC[C@@]2(C(=O)O)CC[C@]3(C)C(=CC[C@H]4[C@@]5(C)CC[C@@H](O)C(C)(C)[C@@H]5CC[C@@]43C)[C@@H]12 [NCGC00016318-01]
qHTS Curve Class: 4 (inactive, where activity was below 28.6% (3σ for the present assay))
EC50: > 9 µM

CCC(=O)[C@@]1(C)[C@H](C)C[C@H]2[C@@H]3CCC4=CC(=O)C=C[C@]4(C)[C@H]3[C@@H](O)C[C@@]21C [NCGC00016856-01]
qHTS Hill Slope: 0.52
log qEC50 [1]: −8.507
qHTS Max Activity: 77.5
EC50 [2]: 0.00311 µM

C[C@@]12CC(=O)[C@H]3[C@@H](CCC4=CC(=O)CC[C@]43C)[C@H]1CCC2=O [NCGC00016440-01]
EC50 [2]: > 9 µM

C[C@H](CCC(=O)NCC(=O)O)[C@H]1CC[C@H]2[C@H]3[C@@H](C[C@@H](O)[C@]12C)[C@]1(C)CC[C@H](O)C[C@@H]1C[C@@H]3O [NCGC00016452-01]
EC50 [2]: > 9 µM

C[C@]12C[C@H]3S[C@H]3C[C@@H]1CC[C@@H]1[C@@H]2CC[C@]2(C)[C@@H](O)CC[C@@H]12 [NCGC00016609-01]
qHTS Curve Class: 4 (inactive, where activity was below 28.6% (3σ for the present assay))
EC50: > 9 µM

C=C(C)[C@H]1CC[C@]2(CO)CC[C@]3(C)[C@@H](CC[C@H]4[C@@]5(C)CC[C@@H](O)C(C)(C)[C@@H]5CC[C@@]43C)[C@H]12 [NCGC00016450-01]
qHTS Curve Class: 4 (inactive, where activity was below 28.6% (3σ for the present assay))
EC50: > 9 µM

CC(=O)[C@H]1CC[C@H]2[C@@H]3C[C@H](C)C4=CC(=O)CC[C@]4(C)[C@H]3[C@@H](O)C[C@]12C [NCGC00016616-01]
qHTS Hill Slope: 0.13
log qEC50 [1]: −5.381
qHTS Max Activity: 100.0
EC50 [2]: 4.16 µM

CC(C)(O)/C=C\C(=O)[C@](C)(O)[C@H]1[C@H](O)C[C@]2(C)[C@@H]3CC=C4[C@@H](C=C(O)C(=O)C4(C)C)[C@]3(C)C(=O)C[C@@]12C [NCGC00014911-01]
qHTS Curve Class: 4 (inactive, where activity was below 28.6% (3σ for the present assay))
EC50: > 9 µM

CC[C@H](CC[C@H](C)[C@@H]1CC[C@@H]2[C@H]3CC=C4C[C@@H](O)CC[C@]4(C)[C@H]3CC[C@]21C)C(C)C [NCGC00016331-01]
EC50 [2]: > 9 µM

C#C[C@@]1(OC(C)=O)CC[C@@H]2[C@@H]3CCC4=C[C@@H](OC(C)=O)CC[C@H]4[C@H]3CC[C@]21C [NCGC00016417-01]
qHTS Curve Class: 4 (inactive, where activity was below 28.6% (3σ for the present assay))
EC50: > 9 µM

C[C@@H]1O[C@H](O[C@@H]2CC[C@@]3(C=O)[C@H]4CC[C@@]5(C)[C@@H](C6=CC(=O)OC6)CC[C@@]5(O)[C@@H]4CC[C@]3(O)C2)C[C@H](O)[C@@H]1O [NCGC00016524-01]
EC50 [2]: > 9 µM

C[C@@]12CC[C@H]3[C@@H](CC[C@]4(O)C[C@H](O)CC[C@@]34C=O)[C@]1(O)CC[C@@H]2C1=CC(=O)OC1 [NCGC00016295-01]
EC50 [2]: > 9 µM

CC(=O)OCC(=O)[C@@]1(O)CC[C@H]2[C@@H]3CCC4=CC(=O)C=C[C@]4(C)[C@@]3(F)[C@@H](O)C[C@@]21C [NCGC00016433-01]
qHTS Hill Slope: 0.52
log qEC50 [1]: −7.456
qHTS Max Activity: 80.8
EC50 [2]: 0.035 µM

C#C[C@@]1(O)CC[C@H]2[C@H]3CCC4=Cc5oncc5C[C@]4(C)[C@@H]3CC[C@@]21C [NCGC00015375-01]
qHTS Curve Class: 4 (inactive, where activity was below 28.6% (3σ for the present assay))
EC50: > 9 µM

C[C@@]12CC[C@H](O)C[C@@H]1CC[C@H]1[C@H]2C[C@@H](O)[C@]2(C)[C@@H](C3=CC(=O)OC3)CC[C@@]12O [NCGC00017309-01]
EC50 [2]: > 9 µM

CC(=O)O[C@H]1C[C@@]2(C)[C@@H](C[C@@H](O)[C@H]3[C@@]4(C)CC[C@@H](O)[C@@H](C)[C@@H]4CC[C@@]32C)/C1=C(\CCC=C(C)C)C(=O)[O-].[Na+] [NCGC00017030-01]
qHTS Curve Class: 4 (inactive, where activity was below 28.6% (3σ for the present assay))
EC50: > 9 µM

C[C@@]12CC[C@H](O)C[C@@H]1CC[C@H]1[C@H]2CC[C@@]2(C)[C@@H](C3=CC(=O)OC3)CC[C@]12O [NCGC00016406-01]
EC50 [2]: > 9 µM

C[C@]12CC[C@H](O)C[C@@H]1CC[C@H]1[C@H]2CC[C@]2(C)[C@H](C(=O)CO)CC[C@@H]12 [NCGC00015805-01]
EC50 [2]: > 9 µM

C[C@]12C=CC(=O)C=C1CC[C@@H]1[C@H]3C[C@@H](O)[C@](O)(C(=O)CO)[C@]3(C)C[C@H](O)[C@]12F [NCGC00016037-01]
qHTS Hill Slope: 1.03
log qEC50 [1]: −6.563
qHTS Max Activity: 113.5
EC50 [2]: 0.273 µM

C[C@@]12C[C@@H](O)[C@H]3[C@@H](CCC4=CC(=O)CC[C@]43C)[C@H]1CC[C@H]2C(=O)CO [NCGC00015222-01]
qHTS Hill Slope: 0.77
log qEC50 [1]: −6.747
qHTS Max Activity: 64.0
EC50 [2]: 0.179 µM

C[C@]12CC[C@H]3[C@@H](CCC4=CC(=O)CC[C@@]43C)[C@@H]1CC[C@@H]2C(=O)CO [NCGC00016292-01]
EC50 [2]: > 9 µM

CC(=O)O[C@H]1C[C@H]2CC[C@@H]3[C@H]4C[C@@H]([N+]5(C)CCCCC5)[C@@H](OC(C)=O)[C@]4(C)CC[C@@H]3[C@@]2(C)C[C@@H]1[N+]1(C)CCCCC1 [NCGC00024736-01]
EC50 [2]: > 9 µM

C[C@@]12CCC(=O)C=C1CC[C@@H]1[C@@H]2[C@H](O)C[C@]2(C)[C@@H]1CC[C@]2(O)C(=O)CO [NCGC00015507-01]
qHTS Hill Slope: 0.55
qHTS Max Activity: 123.7

C#C[C@@]1(O)CC[C@@H]2[C@@H]3CCC4=CC(=O)CC[C@@H]4[C@H]3CC[C@]21CC [NCGC00016540-01]
qHTS Curve Class: 4 (inactive, where activity was below 28.6% (3σ for the present assay))
EC50: > 9 µM

C[C@]12Cc3cn4c(nc3C=C1CC[C@H]1[C@@H]2CC[C@@]2(C)[C@H]1CC[C@@]2(O)C#N)nc1ccccc14 [NCGC00016090-01]
qHTS Curve Class: 4 (inactive, where activity was below 28.6% (3σ for the present assay))
EC50: > 9 µM

C[C@@H]1[C@H]2CC[C@@H]3[C@@H]4CC=C5C[C@@H](N(C)C)CC[C@]5(C)[C@@H]4CC[C@@]32CN1C [NCGC00016502-01]
EC50 [2]: > 9 µM

C[C@@]12C[C@@H](O)[C@H]3[C@@H](CCC4=CC(=O)CC[C@]43C)[C@H]1CC[C@H]2C(=O)CO [NCGC00016214-01]
qHTS Hill Slope: 1.35
log qEC50 [1]: −7.782
qHTS Max Activity: 37.8
EC50 [2]: 0.0165 µM
